Values of other authors in patent US20130029862A1, “Clinical application utilizing genetic data for effective medication management” (priority 2011, published 2013).

Experiments:
[1] = carriers of C allele compared to T/T homozygotes, ApoE rs7412
[2] = Met/Met (A/A) compared to Val/Val (G/G), COMT rs4680

Structure (SMILES)	weight gain [1]	response with antidepressant [2]
Cc1cc2c(s1)Nc1ccccc1N=C2N1CCN(C)CC1 [olanzapine]	likely to gain weight on olanzapine	
Fc1ccc([C@@H]2CCNC[C@H]2COc2ccc3c(c2)OCO3)cc1 [paroxetine]		Better response with antidepressant
